Test results from ChEMBL document CHEMBL1201862, “PubChem BioAssay data set” (2004).
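Assay format: 96-well plates, 48-hour exposure. At the GI50, growth is halved.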 Calls of active or inactive are those of the source. Cut-off read from the data, not from the text of the source: active = GI50 up to about 1.1 µM and inactive = higher.

Experiments:
Test in all cases: DTP human tumour cell line panel, 48 h
HT-29 = tested on: HT-29
MOLT-4 = tested on: MOLT-4
CCRF-CEM = tested on: CCRF-CEM
TK-10 = tested on: TK-10
MDA-N = tested on: MDA-N
NCI-H522 = tested on: NCI-H522
HOP-62 = tested on: HOP-62
MDA-MB-231 = tested on: MDA-MB-231
LOX IMVI = tested on: LOX IMVI
NCI-H23 = tested on: NCI-H23
SF-268 = tested on: SF-268
MCF7 = tested on: MCF7
HCT-15 = tested on: HCT-15
A498 = tested on: A498
A549 = tested on: A549
HL-60 = tested on: HL-60
Hs-578T = tested on: Hs-578T
IGROV-1 = tested on: IGROV-1
SN12C = tested on: SN12C
SF-539 = tested on: SF-539
NCI/ADR-RES = tested on: NCI/ADR-RES
K562 = tested on: K562
PC-3 = tested on: PC-3
M14 = tested on: M14
SNB-75 = tested on: SNB-75
EKVX = tested on: EKVX
OVCAR-8 = tested on: OVCAR-8
U-251 = tested on: U-251
MDA-MB-435 = tested on: MDA-MB-435
Malme-3M = tested on: Malme-3M
OVCAR-4 = tested on: OVCAR-4
SR = tested on: SR
SK-MEL-28 = tested on: SK-MEL-28
SNB-19 = tested on: SNB-19
UO-31 = tested on: UO-31
NCI-H460 = tested on: NCI-H460
UACC-62 = tested on: UACC-62
CAKI-1 = tested on: CAKI-1
SK-MEL-5 = tested on: SK-MEL-5
RXF 393 = tested on: RXF 393
ACHN = tested on: ACHN
SW-620 = tested on: SW-620
786-0 = tested on: 786-0
NCI-H226 = tested on: NCI-H226
BT-549 = tested on: BT-549
HOP-92 = tested on: HOP-92
SF-295 = tested on: SF-295
DU-145 = tested on: DU-145
COLO 205 = tested on: COLO 205
HCT-116 = tested on: HCT-116
HCC 2998 = tested on: HCC 2998
T47D = tested on: T47D
OVCAR-3 = tested on: OVCAR-3
SK-OV-3 = tested on: SK-OV-3
RPMI-8226 = tested on: RPMI-8226
UACC-257 = tested on: UACC-257
OVCAR-5 = tested on: OVCAR-5
KM12 = tested on: KM12
SK-MEL-2 = tested on: SK-MEL-2

## COC(=O)/C(=C\c1cn(C(C)=O)c2ccccc12)P(=O)(OC)OC
HT-29
  GI50: 16.1 µM (inactive)
MOLT-4
  GI50: 34.8 µM (inactive)
CCRF-CEM
  GI50: 14.6 µM (inactive)
TK-10
  GI50: 20.8 µM (inactive)
MDA-N
  GI50: 15.1 µM (inactive)
NCI-H522
  GI50: 11.2 µM (inactive)
HOP-62
  GI50: 14.9 µM (inactive)
MDA-MB-231
  GI50: 11.7 µM (inactive)
LOX IMVI
  GI50: 5.55 µM (inactive)
NCI-H23
  GI50: 14.8 µM (inactive)
SF-268
  GI50: 22.4 µM (inactive)
MCF7
  GI50: 13.6 µM (inactive)
HCT-15
  GI50: 14.5 µM
A498
  GI50: 17.3 µM (inactive)
A549
  GI50: 16.4 µM (inactive)
HL-60
  GI50: 78.5 µM (inactive)
Hs-578T
  GI50: 27 µM (inactive)
IGROV-1
  GI50: 13.3 µM (inactive)
SN12C
  GI50: 14.8 µM (inactive)
SF-539
  GI50: 16 µM (inactive)
NCI/ADR-RES
  GI50: 23.8 µM (inactive)
K562
  GI50: 25.1 µM (inactive)
PC-3
  GI50: 16.2 µM (inactive)
M14
  GI50: 15.2 µM (inactive)
SNB-75
  GI50: 12 µM (inactive)
EKVX
  GI50: 17 µM (inactive)
OVCAR-8
  GI50: 22.5 µM (inactive)
U-251
  GI50: 15.8 µM (inactive)
MDA-MB-435
  GI50: 21.2 µM (inactive)
Malme-3M
  GI50: 16.7 µM (inactive)
OVCAR-4
  GI50: 14.6 µM (inactive)
SR
  GI50: > 100 µM (inactive)
SK-MEL-28
  GI50: 24.1 µM (inactive)
SNB-19
  GI50: 18.1 µM (inactive)
UO-31
  GI50: 13.1 µM (inactive)
NCI-H460
  GI50: 15 µM (inactive)
UACC-62
  GI50: 11.5 µM (inactive)
CAKI-1
  GI50: 12.6 µM (inactive)
SK-MEL-5
  GI50: 13.4 µM (inactive)
RXF 393
  GI50: 16.7 µM (inactive)
ACHN
  GI50: 11.8 µM (inactive)
SW-620
  GI50: 18.5 µM (inactive)
786-0
  GI50: 17.6 µM (inactive)
NCI-H226
  GI50: 38.4 µM (inactive)
BT-549
  GI50: 15.8 µM (inactive)
HOP-92
  GI50: 16.6 µM (inactive)
SF-295
  GI50: 14.9 µM (inactive)
DU-145
  GI50: 13.4 µM (inactive)
COLO 205
  GI50: 16.8 µM (inactive)
HCT-116
  GI50: 13.9 µM (inactive)
HCC 2998
  GI50: 16.8 µM (inactive)
T47D
  GI50: 13.7 µM (inactive)
OVCAR-3
  GI50: 17.1 µM (inactive)
SK-OV-3
  GI50: 19 µM (inactive)
RPMI-8226
  GI50: 17.1 µM (inactive)

## COc1ccc(/C=N/c2ccc(-c3nc4ccccc4[nH]3)cc2)cc1OC
HT-29
  GI50: > 100 µM (inactive)
MOLT-4
  GI50: > 100 µM (inactive)
CCRF-CEM
  GI50: > 100 µM (inactive)
TK-10
  GI50: > 100 µM (inactive)
MDA-N
  GI50: > 100 µM (inactive)
NCI-H522
  GI50: > 100 µM (inactive)
HOP-62
  GI50: > 100 µM (inactive)
UACC-257
  GI50: > 100 µM (inactive)
MDA-MB-231
  GI50: 68.4 µM (inactive)
LOX IMVI
  GI50: > 100 µM (inactive)
NCI-H23
  GI50: > 100 µM (inactive)
SF-268
  GI50: 80 µM (inactive)
MCF7
  GI50: 25.9 µM (inactive)
HCT-15
  GI50: > 100 µM
A498
  GI50: > 100 µM (inactive)
A549
  GI50: > 100 µM (inactive)
HL-60
  GI50: 63.7 µM (inactive)
Hs-578T
  GI50: > 100 µM (inactive)
IGROV-1
  GI50: 49.3 µM (inactive)
SN12C
  GI50: > 100 µM (inactive)
SF-539
  GI50: > 100 µM (inactive)
NCI/ADR-RES
  GI50: > 100 µM (inactive)
K562
  GI50: > 100 µM (inactive)
PC-3
  GI50: > 100 µM (inactive)
M14
  GI50: > 100 µM (inactive)
SNB-75
  GI50: 22.3 µM (inactive)
EKVX
  GI50: > 100 µM (inactive)
OVCAR-8
  GI50: 39.6 µM (inactive)
U-251
  GI50: 42.5 µM (inactive)
MDA-MB-435
  GI50: > 100 µM (inactive)
Malme-3M
  GI50: > 100 µM (inactive)
OVCAR-4
  GI50: > 100 µM (inactive)
SR
  GI50: 81.7 µM (inactive)
SK-MEL-28
  GI50: > 100 µM (inactive)
SNB-19
  GI50: > 100 µM (inactive)
UO-31
  GI50: > 100 µM (inactive)
NCI-H460
  GI50: > 100 µM (inactive)
CAKI-1
  GI50: > 100 µM (inactive)
SK-MEL-5
  GI50: > 100 µM (inactive)
RXF 393
  GI50: 97.9 µM (inactive)
OVCAR-5
  GI50: > 100 µM (inactive)
KM12
  GI50: > 100 µM (inactive)
ACHN
  GI50: > 100 µM (inactive)
SW-620
  GI50: > 100 µM (inactive)
SK-MEL-2
  GI50: > 100 µM (inactive)
786-0
  GI50: > 100 µM (inactive)
NCI-H226
  GI50: > 100 µM (inactive)
BT-549
  GI50: 89.1 µM (inactive)
HOP-92
  GI50: 47 µM (inactive)
SF-295
  GI50: > 100 µM (inactive)
DU-145
  GI50: > 100 µM (inactive)
COLO 205
  GI50: > 100 µM (inactive)
HCT-116
  GI50: > 100 µM (inactive)
T47D
  GI50: > 100 µM (inactive)
OVCAR-3
  GI50: > 100 µM (inactive)
SK-OV-3
  GI50: > 100 µM (inactive)
RPMI-8226
  GI50: > 100 µM (inactive)
